Test results published in patent US9796711B2, “Substituted pyrazolo[3,4-b]pyridin-6-carboxylic acids and method of use” (AbbVie S.àr.l., priority 2015, dated 2017).
Read-outs that look alike come from different tables or passages of the source.

How the values were obtained:
[1] = target: T1, CFTR ΔF508 (Homo sapiens, UniProt P13569, DEL508-508); test: Acute TECC assay on primary bronchial epithelial cells, with and without co-corrector; type: cell-based; details: normalized to DMSO and positive control; for % Activity at 10 μM (Ieq*): bronchial epithelial cells from CF patients homozygous for CFTR ΔF508, 10 μM test compound for 24 h, without co-corrector, Ieq based on the maximum current; for % Activity at 3 μM with co-corrector (Ieq): bronchial epithelial cells from CF patients homozygous for CFTR ΔF508, 3 μM test compound for 24 h
T1 construct: bronchial epithelial cells isolated from CF patients homozygous for the CFTR ΔF508 mutation; McGill University; Asterand; University of North Carolina hAEC-CF; host or cells: primary human bronchial epithelial cells from CF patients homozygous for ΔF508
T1 sequence (P13569 with tags, fused parts or gaps DEL508-508): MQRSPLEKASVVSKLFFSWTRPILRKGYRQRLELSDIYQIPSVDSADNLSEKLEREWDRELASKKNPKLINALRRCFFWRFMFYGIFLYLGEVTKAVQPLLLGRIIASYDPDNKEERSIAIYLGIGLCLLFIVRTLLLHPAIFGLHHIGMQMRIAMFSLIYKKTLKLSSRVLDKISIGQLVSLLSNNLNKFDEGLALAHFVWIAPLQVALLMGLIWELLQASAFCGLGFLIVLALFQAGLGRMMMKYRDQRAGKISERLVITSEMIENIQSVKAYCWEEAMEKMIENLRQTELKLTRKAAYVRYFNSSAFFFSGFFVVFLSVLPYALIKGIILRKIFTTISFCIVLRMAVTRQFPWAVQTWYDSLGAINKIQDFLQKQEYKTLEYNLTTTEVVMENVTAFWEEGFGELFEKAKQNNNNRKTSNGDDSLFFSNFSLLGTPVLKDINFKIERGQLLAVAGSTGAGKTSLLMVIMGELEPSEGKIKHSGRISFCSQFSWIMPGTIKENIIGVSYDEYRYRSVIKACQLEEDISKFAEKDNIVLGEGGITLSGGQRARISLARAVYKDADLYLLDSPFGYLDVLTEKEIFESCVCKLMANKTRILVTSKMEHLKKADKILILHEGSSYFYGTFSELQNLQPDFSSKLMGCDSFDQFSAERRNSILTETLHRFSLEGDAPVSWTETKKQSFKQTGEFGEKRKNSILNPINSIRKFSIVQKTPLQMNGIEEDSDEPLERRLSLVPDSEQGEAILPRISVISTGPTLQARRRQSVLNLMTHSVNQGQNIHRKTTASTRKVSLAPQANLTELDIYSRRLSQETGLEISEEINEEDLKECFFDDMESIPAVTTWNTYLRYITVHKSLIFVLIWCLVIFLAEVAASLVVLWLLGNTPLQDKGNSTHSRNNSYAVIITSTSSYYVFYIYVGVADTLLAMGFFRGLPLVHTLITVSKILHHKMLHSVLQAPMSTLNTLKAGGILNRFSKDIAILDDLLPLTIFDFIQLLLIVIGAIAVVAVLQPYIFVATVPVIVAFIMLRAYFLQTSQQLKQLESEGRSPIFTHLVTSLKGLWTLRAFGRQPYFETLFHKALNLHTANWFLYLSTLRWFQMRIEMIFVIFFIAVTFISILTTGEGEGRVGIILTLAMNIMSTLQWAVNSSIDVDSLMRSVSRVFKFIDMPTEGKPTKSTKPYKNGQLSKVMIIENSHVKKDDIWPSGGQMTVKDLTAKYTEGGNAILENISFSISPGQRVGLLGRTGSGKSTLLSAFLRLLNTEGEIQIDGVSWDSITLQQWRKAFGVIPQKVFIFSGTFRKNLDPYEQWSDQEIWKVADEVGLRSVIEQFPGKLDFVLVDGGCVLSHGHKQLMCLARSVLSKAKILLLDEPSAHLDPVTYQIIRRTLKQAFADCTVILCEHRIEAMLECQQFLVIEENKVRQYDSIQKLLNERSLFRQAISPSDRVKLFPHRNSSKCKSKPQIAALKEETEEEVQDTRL
Description: Primary Bronchial Epithelial Cells Protocol
The TECC (Tranepithelial Clamp Circuit, EP-design) assay measures the functionality of the cystic fibrosis Transmembrane Conductance regulator (CFTR) by measuring the short circuit current (Isc) generated over the basolateral and apical membrane of lung epithelial cells. In TECC the transepithelial potential PD and transepithelial resistance (Rt)) are measured in an open circuit and transformed to Ieq using Ohm's law. 24 Wells can be measured simultaneously allowing a higher throughput compared to Ussing chambers.
For this purpose, bronchial epithelial cells isolated from CF patients homozygous for the CFTR ΔF508 mutation (hAEC-CF, Epithelix, Geneva, Switzerland; McGill University, Montreal, Qc; Asterand, Detroit, Mich.; University of North Carolina, Chapel Hill, N.C.) are plated on type IV collagen-coated Transwell® supports (Costar). Human airway epithelia are generated by provision of an air-liquid interface for 21 days to form well-differentiated polarized cultures that resemble in vivo pseudo-stratified ciliated epithelium (Fulcher, M. L., Gabriel, S., Burns, K. A., Yankaskas, J. R., Randell, S. H., 2005. Well-differentiated human airway epithelial cell cultures. Methods Mol. Med. 107, 183-206). The differentiated cells are treated with test corrector compound(s) (corrector alone or in combination with co-corrector, 4-[(2R,4R)-4-({[1-(2,2-difluoro-1,3-benzodioxol-5-yl)cyclopropyl]carbonyl}amino)-7-methoxy-3,4-dihydro-2H-chromen-2-yl]benzoic acid (G924806/A-1618261) (“acute”) or test corrector compounds, co-corrector and potentiator, N-(3-carbamoyl-5,5,7,7-tetramethyl-4,7-dihydro-5H-thieno[2,3-c]pyran-2-yl)-1H-pyrazole-5-carboxamide GLPG1837, (“chronic”) for 24 hours basolaterally to allow sufficient expression of properly folded CFTR protein on the membrane. All compound plates contained negative controls (DMSO) and positive controls (0.15 μM, 4-[(2R,4R)-4-({[1-(2,2-difluoro-1,3-benzodioxol-5-yl)cyclopropyl]carbonyl}amino)-7-(difluoromethoxy)-3,4-dihydro-2H-chromen-2-yl]benzoic acid).
For electrophysiological recording of the “acute” experiments, the human airway epithelia are mounted in the TECC heating plate and kept at 37° C. The epithelia are bathed in a NaCl-Ringer solution (120 mM NaCl, 25 mM NaHCO3, 1.2 mM CaCl2, 1.2 mM MgCl2, 0.8 mM KH2PO4, 0.8 mM K2HPO4, pH 7.4, 5 mM glucose) on both the basolateral and apical sides. Apical amiloride is used to inhibit the endogenous epithelial sodium channel (ENaC) currents while forskolin is applied on both apical and basolateral side to stimulate CFTR. CFTR activity is measured by addition of forskolin followed by addition of a potentiator, N-(3-carbamoyl-5,5,7,7-tetramethyl-4,7-dihydro-5H-thieno[2,3-c]pyran-2-yl)-1H-pyrazole-5-carboxamide, on both sides. Measurements are done during a 20 minute timeframe with recordings every 2 minutes. The increase in Ieq is used as a measure for the increased CFTR activity, EC50 values can be generated by measuring impact of different concentrations of compound on Ieq on primary cells, for this purpose each transwell is treated with a different compound concentration for 24 hours. Inhibitor-172, an inhibitor specific for CFTR, is used to test the specificity of the tested compounds. Raw data were normalized to percentage activity values using the equation: 100×(Sample−Negative control)/(Positive control−Negative Control).

[2] = target: T1, CFTR ΔF508; test: Chronic TECC assay on primary bronchial epithelial cells (corrector, co-corrector and potentiator); type: cell-based; details: chronic TECC, with co-corrector and potentiator, 24 hours
Method in brief: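 Differentiated airway epithelia from CFTR ΔF508-homozygous CF patients (21 days air-liquid interface) were treated basolaterally for 24 h with corrector plus co-corrector and potentiator; compounds were re-added before TECC recording at 37 °C in NaCl-Ringer, pH 7.4. Forskolin-stimulated Ieq increase after apical amiloride, normalized to DMSO and positive controls; EC50 from concentration series.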

[3] = 1 μM, Ieq = calculations based on the maximum current
[4] = Ieq = calculations based on the maximum current, read-out: EC50 (nM) (Ieq)
[5] = AUC = full area under the curve upon forskolin stimulation, read-out: EC50 (nM) (AUC)

Compound	% Activity at 10 μM (Ieq*) [1]	% Activity at 3 μM with co-corrector (Ieq) [1]	% Activity at 1 μM (Ieq*) [2, 3]	EC50 [2, 4]	also measured
CC(C)c1nn(-c2cccc(N3CCOCC3)c2)c2nc(C(=O)O)cc(-c3ccc(N(C)C)nc3)c12 [compound 89, 4-[6-(dimethylamino)pyridin-3-yl]-1-[3-(morpholin-4-yl)phenyl]-3-(propan-2-yl)-1H-pyrazolo[3,4-b]pyridine-6-carboxylic acid]	147.6%	–	–	–	–
CC(C)c1nn(C2CCCCC2)c2nc(C(=O)O)cc(-c3ccc(N(C)C4CCOCC4)nc3)c12 [compound 169, 1-cyclohexyl-4-{6-[methyl(oxan-4-yl)amino]pyridin-3-yl}-3-(propan-2-yl)-1H-pyrazolo[3,4-b]pyridine-6-carboxylic acid]	–	279.1%	–	–	–
N#CC1CCN(c2ccc(-c3cc(C(=O)O)nc4c3c(C3CCC3)nn4C3CCCCC3)cn2)CC1 [compound 220, 4-[6-(4-cyanopiperidin-1-yl)pyridin-3-yl]-3-cyclobutyl-1-cyclohexyl-1H-pyrazolo[3,4-b]pyridine-6-carboxylic acid]	–	122.9%	720%	120 nM	–
CC(C)c1nn(-c2cccc(N3CCC3)c2)c2nc(C(=O)O)cc(-c3ccc(N4CCOCC4)cc3)c12 [compound 151, 1-[3-(azetidin-1-yl)phenyl]-4-[4-(morpholin-4-yl)phenyl]-3-(propan-2-yl)-1H-pyrazolo[3,4-b]pyridine-6-carboxylic acid]	100.6%	–	–	–	–
Cc1nn(-c2ccccc2)c2nc(C(=O)O)cc(N3CCCCC3)c12 [compound 123, 3-methyl-1-phenyl-4-(piperidin-1-yl)-1H-pyrazolo[3,4-b]pyridine-6-carboxylic acid]	100.6%	–	–	–	–
CC(C)c1nn(-c2cccc(N3CCCC3)c2)c2nc(C(=O)O)cc(-c3ccc(N4CCC(C#N)CC4)nc3)c12 [compound 222, 4-[6-(4-cyanopiperidin-1-yl)pyridin-3-yl]-3-(propan-2-yl)-1-[3-(pyrrolidin-1-yl)phenyl]-1H-pyrazolo[3,4-b]pyridine-6-carboxylic acid]	–	221.3%	–	–	–
Cc1cccc(-n2nc(C(C)C)c3c(N4CCC(CO)CC4)cc(C(=O)O)nc32)c1 [compound 213, 4-[4-(hydroxymethyl)piperidin-1-yl]-1-(3-methylphenyl)-3-(propan-2-yl)-1H-pyrazolo[3,4-b]pyridine-6-carboxylic acid]	–	199.4%	390%	> 300 nM	–
CC(C)c1nn(-c2cccc(N3CCOCC3)n2)c2nc(C(=O)O)cc(-c3ccc(N4CCOCC4)cc3)c12 [compound 244, 4-[4-(morpholin-4-yl)phenyl]-1-[6-(morpholin-4-yl)pyridin-2-yl]-3-(propan-2-yl)-1H-pyrazolo[3,4-b]pyridine-6-carboxylic acid]	–	–	210%	< 30 nM	–
CC(C)Oc1nn(C2CCCCC2)c2nc(C(=O)O)cc(-c3ccc(CN4CC(N(C)C)C4)cc3)c12 [compound 927, 1-cyclohexyl-4-(4-{[3-(dimethylamino)azetidin-1-yl]methyl}phenyl)-3-[(propan-2-yl)oxy]-1H-pyrazolo[3,4-b]pyridine-6-carboxylic acid]	–	–	–	–	EC50 [2, 5]: 1940 nM
O=C(O)c1cc(N2CCC(N3CCOCC3)CC2)c2c(C3CCC3)nn(-c3ccc(F)cc3)c2n1 [compound 679, 3-cyclobutyl-1-(4-fluorophenyl)-4-[4-(morpholin-4-yl)piperidin-1-yl]-1H-pyrazolo[3,4-b]pyridine-6-carboxylic acid]	–	–	–	–	% Activity at 1 μM (AUC**) ([2]; 1 μM, AUC = full area under the curve upon forskolin stimulation): 373.3333%; EC50 [2, 5]: 28 nM
